A short description of the series: Cell viability assay (CellTiter-Glo). To be noted: human; HEK293T, 72 hour treatment; read-out: IC50 cell viability. The series is classed as cell-based. The protocol: In 96-well round-bottom plates, sorbitol -synchronized cultures of ring-stage NF54 P. falciparum parasites were established in triplicate and treated with varying concentrations of the inhibitors (25-0.0038 μM) serially diluted in complete medium. Parasite proliferation rates were analyzed after 72 h using the Renilla-Glo Luciferase Assay, and luminescence was measured using the GloMax® Discover Microplate Reader. EC 50 values were obtained from corrected dose-response curves using GraphPad Prism (version 5; GraphPad Software). Data represent the mean % luminescence relative to 5% DMSO-treated (vehicle, 100% growth) and 100 nM chloroquine-treated (no growth) controls.
In black, clear-bottom 96-well plates (No. 3904 Corning Life Sciences), HEK293T cells were plated at 2x10^5 cells/mL in DMEM high glucose, pyruvate media (ThermoFisher Scientific, cat. 11995073) supplemented with 10% FBS and 1% pen -strep (100 μL final volume). Cells were incubated overnight at 37°C, 5% CO2. Using a Tecan D300e digital dispenser, cells were dosed in triplicate […]
concentration, 100 mM stock in DMSO) and Carfilzomib (10 µM to 4.6 nM final concentration, 10 mM stock in DMSO) normalizing DMSO to 0.25%. Cells were then incubated at 37 °C, 5% CO2 for 72 hours. Following incubation, cells were treated with 70 µL CellTiter-Glo® Luminescent Cell Viability Assay Reagent (Promega, cat. G7570) and incubated in the dark at room temperature for 30 minutes. Plates were read using an EnVision Multimode Plate Reader (PerkinElmer). Cell viability data was normalized to DMSO controls and analyzed in GraphPad Prism 8 by fitting the data to “[Inhibitor] vs. normalized response – variable slope” model to obtain the curves.
Each compound was prepared in duplicate at 1 µM final concentration (0.2% DMSO) in human or mouse plasma (Aldrich). […]
After quenching, samples were centrifuged to pellet precipitated partic ulates and an aliquot of supernatant was diluted 1:1 with water. The resulting solution was analyzed by UPLC -MS/MS with compounds detected by MRM detection on a triple quadrupole mass spectrometer. […]
Background: Cellular ATP, detected with luciferase, serves as a proxy for viable cell number.

For orientation: IC50 means the point on the concentration scale where inhibition reaches its midpoint. In the case of `C=CC(=O)Nc1ccccc1[C@@H](CCc1ccc(OC)c(OC)c1)OC(=O)[C@@H]1CCCCN1C(=O)C(=O)C(C)(C)CC` [1c], the IC50 at 72 h came out at 75 µM.

Source of the values: article PMC7667655, “Targeted Covalent Inhibition of Plasmodium FK506 Binding Protein 35” (ACS Medicinal Chemistry Letters, 2020).
